Laboratory results: publication PMC10845951, “Characterization of a selective, iron-chelating antifungal compound that disrupts fungal metabolism and synergizes with fluconazole” (Microbiology Spectrum, 2024)

Columns and labels:
[1] = tested on: C. glabrata WT (10028) cells; assay: XTT metabolic assay; format: cell-based, Candida glabrata; details: 0.625, 2.5, 10 µM; 6 and 24 h
C. glabrata cells = assay: Dead cell staining with propidium iodide; format: cell-based, Candida glabrata; details: 24 h
Protocol: Propidium iodide (Sigma) was freshly prepared to a final concentration of 5 µg/mL in PBS.
The samples were incubated at 30°C and harvested to a total number of cells equivalent to a 5-mL culture with an OD600 of 0.3 at 6 and 24 h. As a positive control for cell death, cells treated with DMSO were incubated at 75°C for 1 h. The cells were centrifuged at 7,000 rpm for 5 minutes to remove the supernatant, followed by resuspension of the cell pellets in 100-µL 5 µg/mL propidium iodide for 10 minutes in the dark at room temperature. The supernatant was removed by centrifugation at 7,000 rpm for 5 minutes, followed by washing with 500-µL PBS and a final centrifugation at 7,000 rpm for 5 minutes. Finally, the cells were resuspended in 150-µL PBS and measured for fluorescence intensity using a microplate reader.
The autofluorescence of the unstained treated samples was subtracted from raw fluorescence intensities of the stained samples and then normalized to DMSO. Normalized values were log transformed and then analyzed using one-way ANOVA and Tukey’s HSD post hoc test.

[2] = Nano liquid chromatography-mass spectrometry metal binding
Protocol: Liquid chromatography-mass spectrometry (LC-MS)-grade water, acetonitrile, and formic acid (≥99%) were purchased from VWR (Radnor, PA, USA). […] Metal solutions containing 2 µM, 4 µM, 6 µM, and 10 µM CaCl2, CuCl2, FeCl2, FeCl3, MgCl2, MnCl2, and ZnCl2 in 0.1% formic acid in LC-MS-grade water (hereby referred to as 0.1% formic acid) were made. A stock solution of terpyridine (100 µM) in 0.1% formic acid was made and added to the metal solutions to a final concentration of 10 µM terpyridine. All metal solutions in addition to a blank sample containing 10 µM terpyridine in 0.1% formic acid were subjected to nano liquid chromatography (nanoLC-MS) analysis. nanoLC-MS was performed using an nLC EASY 1000 pump connected to a Q-Exactive mass spectrometer (MS) with a Nanospray Flex ion source (all from Thermo Fisher Scientific, Waltham, MA, USA). For separation, a 50 µm (inner diameter) × 5 cm in-house packed nanoLC column containing 2.6-µm Accucore C18 particles (80 Å) was used. The column was packed according to the protocol from Berg et al. ([58]). Trapping of analytes prior to separation was performed online using a 2-cm Acclaim PepMap with 3-µm particles (100 Å). All columns and packing materials were obtained from Thermo Fisher Scientific. The mobile phases consisted of 0.1% formic acid (A) and 90/10/0.1 acetonitrile/water/formic acid (vol/vol/vol) (B).

[3] = tested on: G. mellonella larvae infected with C. glabrata FL-256; assay: Survival assay in infected Galleria mellonella; format: in vivo; details: azole-resistant C. glabrata (FL-256), 30 µM, vs DMSO
Protocol: (§1) Galleria mellonella was obtained from R.J. Mous Livebait (The Netherlands). The larvae were selected by weight (0.2–0.3 grams) and by the absence of dark spots on the cuticle. The larvae were maintained at room temperature, and the day before the experiment, they were transferred to the temperature at which the experiment was going to be performed (30°C). The number of dead caterpillars was scored every day. […] G. mellonella were infected with either C. glabrata 2001HT or FL-256; C. glabrata cells were grown in liquid media (Oxoid) overnight at 30°C with moderate shaking (150 rpm). Groups of 20 larvae per strain were infected in each experiment. The pro-leg area was cleaned with 70% ethanol using a swab. The larvae were inoculated with 10 µL of C. glabrata suspension at 2.5 × 10^6 cells/mL in PBS containing 50 µg/mL of ampicillin by injection, using a Hamilton syringe with 26-gauge needle in the last left pro-leg.

[4] = tested on: G. mellonella larvae infected with C. glabrata 2001HT; assay: Survival assay in infected Galleria mellonella; format: in vivo; details: wild-type C. glabrata (2001HT), 30 µM, vs DMSO
Protocol: as §1

HEK-293 and HS-5 cells = assay: Incucyte live-cell imaging of treated human cells (morphology, compound precipitation)
HS-5 cells = assay: CellTiter-Glo assay for human cells; format: cell-based; details: HS5, HS-5, 24 h
Protocol: (§2) HEK-293 and HS-5 cells were stored in liquid nitrogen, in freezing medium [50% Dulbecco’s Modified Eagle’s Medium (DMEM), 40% fetal bovine serum, and 10% DMSO] for long-term storage. For experimental use, the cells were thawed and then cultured using DMEM containing 10% […] and 1% penicillin/streptomycin.
(§3) The 1:1 serial dilutions of the compounds were performed in 96-well plates to obtain a final concentration range (three technical replicates each) equivalent to 0.781, 1.562, 3.125, 6.25, 12.5, 25, 50, and 100 µM. […] The plates were placed inside plastic bags to prevent evaporation and incubated at 37°C, 5% CO2 for 24 h. One hundred microliters of CellTiter-Glo 2.0 (Promega, G9243) was added to each well and then measured for luminescence using a Synergy 2 Gen 5 plate reader from BioTek.

HEK-293 cells = assay: CellTiter-Glo assay for human cells; format: cell-based; details: HEK293, HEK-293, 24 h
Protocol: as §2, §3

[5] = tested on: Aft1/2 target genes in aft1Δ S. cerevisiae; assay: RT-qPCR of Aft1/2 target genes in aft1Δ strain; format: cell-based, Saccharomyces cerevisiae; details: 10 µM, 24 h
Protocol: WT and […] cells were grown overnight in complete supplement mixture (CSM). […] After 24 h of incubation, cells were collected, and total RNA purification, reverse transcription, and RT-qPCR were performed as previously described with minor modifications ([59], [66]). Briefly, total RNA was purified using the RNeasy Mini Kit (74104, Qiagen), and reverse transcription was performed using the QuantiTect Reverse Transcription Kit (205311, Qiagen). RT-qPCR experiments were done using the HOT FIREPol EvaGreen qPCR Mix (08-36-00001-10, Solis Biodyne) and a LightCycler 96 System (Roche). Expression of the 5S gene was used as a control. The primers used in RT-qPCR experiments are as follows: […]

C. albicans WT = details: Candida albicans, 24 h, read-out: C. albicans WT Inhibition (%)

c1ccc(-c2cccc(-c3ccccn3)n2)nc1 [2,2′:6′,2′′-terpyridine]
reduction of XTT (mitochondrial activity) [1]: significantly inhibited the reduction of XTT | number of propidium iodide-positive cells (C. glabrata cells; 10 µM, vs DMSO): apparent reduction in the number of propidium iodide-positive cells | mode of antifungal effect (C. glabrata cells): cytostatic effect | propidium iodide fluorescence (cell death) (C. glabrata cells; increasing concentrations): no significant difference in fluorescence intensity compared to DMSO | binding of Fe^2+ ([2]; 2-10 µM metal, 10 µM compound): preferentially binds Fe^2+ in a concentration-dependent manner | binding of Fe^3+ ([2]; 2-10 µM metal, 10 µM compound): much lesser extent than Fe^2+ | binding of Cu^2+ ([2]; even at high concentrations): hardly bind | binding of Zn^2+ ([2]; even at high concentrations): hardly bind | survival of infected larvae [3]: significantly improved the survival | survival of infected larvae [4]: significantly improved the survival | cell morphology (HEK-293 and HS-5 cells; 100 µM): morphological changes | compound precipitation / solubility (HEK-293 and HS-5 cells; cell culture medium, up to 100 µM): better solubility | EC50 (HS-5 cells): 28.7 ± 8.32 µM | EC50 (HEK-293 cells): 37.1 ± 6.94 µM | transcriptional responses after deletion of AFT1 [5]: attenuated the transcriptional responses | inhibition at 1 µM (C. albicans WT): -6.82% | inhibition at 2 µM (C. albicans WT): -0.43% | inhibition at 3 µM (C. albicans WT): 1.52% | inhibition at 4 µM (C. albicans WT): 7.25% | inhibition at 5 µM (C. albicans WT): 9.76% | inhibition at 10 µM (C. albicans WT): 79.1%
